Measurements taken from PubChem BioAssay (NCI).
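All cell lines were grown in 96-well plates and treated with compound for 48 hours. GI50: concentration for 50% inhibition of growth. TGI is the concentration that stops growth completely.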

Columns and labels:
Experiment in all cases: inhibition of tumour cell growth, NCI panel, 48 h
SF-268 CNS = tested on: SF-268 CNS
SK-MEL-28 melanoma = tested on: SK-MEL-28 melanoma
MDA-MB-231 breast = tested on: MDA-MB-231 breast
CCRF-CEM leukemia = tested on: CCRF-CEM leukemia
HCT-15 colon = tested on: HCT-15 colon
SK-OV-3 ovarian = tested on: SK-OV-3 ovarian
HL-60(TB) leukemia = tested on: HL-60(TB) leukemia
HOP-92 NSCLC = tested on: HOP-92 NSCLC
HT29 colon = tested on: HT29 colon
ACHN renal = tested on: ACHN renal
NCI-H23 lung = tested on: NCI-H23 lung
SNB-75 CNS = tested on: SNB-75 CNS
SW-620 colon = tested on: SW-620 colon
DU-145 prostate = tested on: DU-145 prostate
T-47D breast = tested on: T-47D breast
LOX IMVI melanoma = tested on: LOX IMVI melanoma
OVCAR-5 ovarian = tested on: OVCAR-5 ovarian
MDA-MB-435 = tested on: MDA-MB-435
UACC-257 melanoma = tested on: UACC-257 melanoma
SN12C renal = tested on: SN12C renal
A549 NSCLC = tested on: A549 NSCLC
SF-295 CNS = tested on: SF-295 CNS
MCF7 breast = tested on: MCF7 breast
RXF 393 renal = tested on: RXF 393 renal
NCI-H226 lung = tested on: NCI-H226 lung
PC-3 prostate = tested on: PC-3 prostate
OVCAR-8 ovarian = tested on: OVCAR-8 ovarian
OVCAR-3 ovarian = tested on: OVCAR-3 ovarian
SNB-19 CNS = tested on: SNB-19 CNS
HCC-2998 colon = tested on: HCC-2998 colon
UO-31 renal = tested on: UO-31 renal
OVCAR-4 ovarian = tested on: OVCAR-4 ovarian
SK-MEL-2 melanoma = tested on: SK-MEL-2 melanoma
U251 CNS = tested on: U251 CNS
RPMI-8226 leukemia = tested on: RPMI-8226 leukemia
EKVX NSCLC = tested on: EKVX NSCLC
CAKI-1 renal = tested on: CAKI-1 renal
SK-MEL-5 melanoma = tested on: SK-MEL-5 melanoma
SF-539 CNS = tested on: SF-539 CNS
NCI-H460 lung = tested on: NCI-H460 lung
MALME-3M melanoma = tested on: MALME-3M melanoma
786-0 renal = tested on: 786-0 renal
NCI/ADR-RES ovarian = tested on: NCI/ADR-RES ovarian
UACC-62 melanoma = tested on: UACC-62 melanoma
A498 renal = tested on: A498 renal
K-562 leukemia = tested on: K-562 leukemia
HOP-62 NSCLC = tested on: HOP-62 NSCLC
BT-549 breast = tested on: BT-549 breast
MOLT-4 leukemia = tested on: MOLT-4 leukemia
COLO 205 colon = tested on: COLO 205 colon
SR leukemia = tested on: SR leukemia
KM12 colon = tested on: KM12 colon
HCT-116 colon = tested on: HCT-116 colon
TK-10 renal = tested on: TK-10 renal

Work on `Cn1c(-c2c(N)n(Cc3ccc(C(F)(F)F)cc3)c3nc(C#N)c(C#N)nc23)nc2ccccc21` yielded a GI50 (SF-268 CNS) of 19.7 µM, a TGI (SF-268 CNS) of 56.5 µM and a GI50 (SK-MEL-28 melanoma) of 14.3 µM. The TGI (SK-MEL-28 melanoma) was 29.1 µM, the GI50 (MDA-MB-231 breast) was 14.8 µM and the TGI (MDA-MB-231 breast) was 31.8 µM. It also gave a GI50 (CCRF-CEM leukemia) of 17.2 µM, a TGI (CCRF-CEM leukemia) of 45.7 µM and a GI50 (HCT-15 colon) of 20.3 µM. For the same compound, the TGI (HCT-15 colon) was > 100 µM, the GI50 (SK-OV-3 ovarian) was 34.7 µM and the TGI (SK-OV-3 ovarian) was > 100 µM. It also gave a GI50 (HL-60(TB) leukemia) of 16.7 µM, a TGI (HL-60(TB) leukemia) of 39.3 µM and a GI50 (HOP-92 NSCLC) of 6.71 µM. For the same compound, the TGI (HOP-92 NSCLC) was 38.3 µM, the GI50 (HT29 colon) was 24.4 µM and the TGI (HT29 colon) was 73.1 µM. For the same compound, the GI50 (ACHN renal) was 22 µM, the TGI (ACHN renal) was > 100 µM and the GI50 (NCI-H23 lung) was 24.4 µM. The TGI (NCI-H23 lung) was 70.2 µM, the GI50 (SNB-75 CNS) was 17 µM and the TGI (SNB-75 CNS) was 78.3 µM. It also gave a GI50 (SW-620 colon) of 19.5 µM, a TGI (SW-620 colon) of 42.2 µM and a GI50 (DU-145 prostate) of 25.3 µM. For the same compound, the TGI (DU-145 prostate) was 65.8 µM, the GI50 (T-47D breast) was 8.76 µM and the TGI (T-47D breast) was 74.7 µM. It also gave a GI50 (LOX IMVI melanoma) of 14.8 µM, a TGI (LOX IMVI melanoma) of 30.2 µM and a GI50 (OVCAR-5 ovarian) of 19.8 µM. It also gave a TGI (OVCAR-5 ovarian) of 44.2 µM, a GI50 (MDA-MB-435) of 20.7 µM and a TGI (MDA-MB-435) of 49.2 µM. The GI50 (UACC-257 melanoma) was 28.1 µM, the TGI (UACC-257 melanoma) was 65.2 µM and the GI50 (SN12C renal) was 24.2 µM. For the same compound, the TGI (SN12C renal) was 71.6 µM, the GI50 (A549 NSCLC) was 32.8 µM and the TGI (A549 NSCLC) was > 100 µM. It also gave a GI50 (SF-295 CNS) of 11.2 µM, a TGI (SF-295 CNS) of 29.8 µM and a GI50 (MCF7 breast) of 16 µM. For the same compound, the TGI (MCF7 breast) was 57.4 µM, the GI50 (RXF 393 renal) was 11.3 µM and the TGI (RXF 393 renal) was 25.3 µM. It also gave a GI50 (NCI-H226 lung) of 17.2 µM, a TGI (NCI-H226 lung) of 36.2 µM and a GI50 (PC-3 prostate) of 6.95 µM. It also gave a TGI (PC-3 prostate) of 69.6 µM, a GI50 (OVCAR-8 ovarian) of 32 µM and a TGI (OVCAR-8 ovarian) of 97.5 µM. For the same compound, the GI50 (OVCAR-3 ovarian) was 6.44 µM, the TGI (OVCAR-3 ovarian) was 22.3 µM and the GI50 (SNB-19 CNS) was 11.7 µM. The TGI (SNB-19 CNS) was 73 µM, the GI50 (HCC-2998 colon) was 24.5 µM and the TGI (HCC-2998 colon) was 56.4 µM. The GI50 (UO-31 renal) was 21.7 µM, the TGI (UO-31 renal) was > 100 µM and the GI50 (OVCAR-4 ovarian) was 32.7 µM. The TGI (OVCAR-4 ovarian) was > 100 µM, the GI50 (SK-MEL-2 melanoma) was 19.5 µM and the TGI (SK-MEL-2 melanoma) was 60.3 µM. It also gave a GI50 (U251 CNS) of 12.5 µM, a TGI (U251 CNS) of 30.4 µM and a GI50 (RPMI-8226 leukemia) of 5.69 µM. For the same compound, the TGI (RPMI-8226 leukemia) was 26.4 µM, the GI50 (EKVX NSCLC) was 13.8 µM and the TGI (EKVX NSCLC) was > 100 µM. It also gave a GI50 (CAKI-1 renal) of 17.4 µM, a TGI (CAKI-1 renal) of 57.3 µM and a GI50 (SK-MEL-5 melanoma) of 16.3 µM. The TGI (SK-MEL-5 melanoma) was 31.5 µM, the GI50 (SF-539 CNS) was 19.9 µM and the TGI (SF-539 CNS) was 42.8 µM. For the same compound, the GI50 (NCI-H460 lung) was 14.5 µM, the TGI (NCI-H460 lung) was 40.3 µM and the GI50 (MALME-3M melanoma) was 21.9 µM. The TGI (MALME-3M melanoma) was 63.6 µM, the GI50 (786-0 renal) was 18.3 µM and the TGI (786-0 renal) was 40.2 µM. The GI50 (NCI/ADR-RES ovarian) was 30.2 µM, the TGI (NCI/ADR-RES ovarian) was > 100 µM and the GI50 (UACC-62 melanoma) was 11.2 µM. For the same compound, the TGI (UACC-62 melanoma) was 25.5 µM, the GI50 (A498 renal) was 5.92 µM and the TGI (A498 renal) was 25.3 µM. For the same compound, the GI50 (K-562 leukemia) was 13.4 µM, the TGI (K-562 leukemia) was 44.6 µM and the GI50 (HOP-62 NSCLC) was 14.8 µM. It also gave a TGI (HOP-62 NSCLC) of 33.2 µM, a GI50 (BT-549 breast) of 20.8 µM and a TGI (BT-549 breast) of 86.6 µM. The GI50 (MOLT-4 leukemia) was 12.8 µM, the TGI (MOLT-4 leukemia) was 40.5 µM and the GI50 (COLO 205 colon) was 18.3 µM. It also gave a TGI (COLO 205 colon) of 34.1 µM, a GI50 (SR leukemia) of 20.6 µM and a TGI (SR leukemia) of 47.3 µM. For the same compound, the GI50 (KM12 colon) was 18.2 µM, the TGI (KM12 colon) was 38.2 µM and the GI50 (HCT-116 colon) was 13.1 µM. For the same compound, the TGI (HCT-116 colon) was 26.9 µM, the GI50 (TK-10 renal) was 23.6 µM and the TGI (TK-10 renal) was 80.6 µM.
